From the supplement of paper PMC10307832

Columns and labels:
Assay in all cases: relative viability (nuclei count vs DMSO), 5 days (fraction); higher = more cells survive
R406 + Palbociclib = compound: COc1cc(Nc2ncc(F)c(Nc3ccc4c(n3)NC(=O)C(C)(C)O4)n2)cc(OC)c1OC [R406] + CC(=O)c1c(C)c2cnc(Nc3ccc(N4CCNCC4)cn3)nc2n(C2CCCC2)c1=O [Palbociclib] (partner 0.5 µM)
In short: (§1)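 For relative viability, nuclei counts in treated wells were divided by those in vehicle wells. Lung cancer cell lines had been pin-tool dosed in 1536-well plates the day after seeding and cultured for 5 days, then fixed and stained in one step (final 0.05% Triton X-100, 1% formaldehyde, 1 ug/ml Hoechst) and imaged at 4×. Doses were one drug alone or a fixed anchor-drug dose plus five library-drug doses (not always all listed) in √10 steps, and values are duplicate-plate medians.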

Daporinad + Pictilisib = compound: O=C(/C=C/c1cccnc1)NCCCCC1CCN(C(=O)c2ccccc2)CC1 [Daporinad] + CS(=O)(=O)N1CCN(Cc2cc3nc(-c4cccc5[nH]ncc45)nc(N4CCOCC4)c3s2)CC1 [Pictilisib] (partner 1 µM)
In short: as §1

Daporinad + Palbociclib = compound: O=C(/C=C/c1cccnc1)NCCCCC1CCN(C(=O)c2ccccc2)CC1 [Daporinad] + CC(=O)c1c(C)c2cnc(Nc3ccc(N4CCNCC4)cn3)nc2n(C2CCCC2)c1=O [Palbociclib] (partner 0.5 µM)
In short: as §1

Daporinad + Olaparib = compound: O=C(/C=C/c1cccnc1)NCCCCC1CCN(C(=O)c2ccccc2)CC1 [Daporinad] + O=C(c1cc(Cc2n[nH]c(=O)c3ccccc23)ccc1F)N1CCN(C(=O)C2CC2)CC1 [Olaparib] (partner 8 µM)
In short: as §1

Row | Cell Line | relative viability (R406 + Palbociclib; first compound 0.08 µM) | relative viability (R406 + Palbociclib; first compound 0.253 µM) | relative viability (R406 + Palbociclib; first compound 0.8 µM) | relative viability (R406 + Palbociclib; first compound 2.53 µM) | relative viability (R406 + Palbociclib; first compound 8 µM) | relative viability (Daporinad + Pictilisib; first compound 0.0005 µM) | relative viability (Daporinad + Pictilisib; first compound 0.001581 µM) | relative viability (Daporinad + Pictilisib; first compound 0.005 µM) | relative viability (Daporinad + Pictilisib; first compound 0.01581 µM) | relative viability (Daporinad + Palbociclib; first compound 0.0005 µM) | relative viability (Daporinad + Palbociclib; first compound 0.001581 µM) | relative viability (Daporinad + Palbociclib; first compound 0.005 µM) | relative viability (Daporinad + Palbociclib; first compound 0.01581 µM) | relative viability (Daporinad + Olaparib; first compound 0.0005 µM) | relative viability (Daporinad + Olaparib; first compound 0.001581 µM) | relative viability (Daporinad + Olaparib; first compound 0.005 µM) | relative viability (Daporinad + Olaparib; first compound 0.01581 µM)
1 | 201T | 0.375 | 0.399 | 0.349 | 0.394 | 0.285 | 0.657 | 0.675 | 0.682 | 0.635 | 0.379 | 0.347 | 0.329 | 0.375 | 0.802 | 0.856 | 0.807 | 0.806
2 | A549 | – | – | – | – | – | 0.548 | 0.529 | 0.61 | 0.469 | – | – | – | – | 0.324 | 0.184 | 0.128 | 0.0773
3 | A-427 | 0.516 | 0.596 | 0.575 | 0.477 | 0.446 | 0.559 | 0.79 | 0.684 | 0.716 | 0.475 | 0.533 | 0.487 | 0.473 | 0.665 | 0.713 | 0.622 | 0.571
4 | ABC-1 | 0.777 | 0.784 | 0.48 | 0.653 | 0.492 | 0.652 | 0.934 | 0.734 | 0.743 | 0.87 | 0.558 | 0.793 | 0.904 | 1 | 0.82 | 0.781 | 0.582
5 | BEN | 0.439 | 0.502 | 0.495 | 0.561 | 0.422 | 0.624 | 0.62 | 0.597 | 0.776 | 0.528 | 0.459 | 0.433 | 0.599 | 0.827 | 1.02 | 1.02 | 0.914
6 | CAL-12T | 0.425 | 0.612 | 0.549 | 0.142 | 0.158 | 0.305 | – | 0.442 | 0.494 | 0.332 | 0.445 | 0.342 | 0.143 | 0.624 | 0.596 | 0.512 | 0.269
7 | COR-L23 | 0.224 | 0.346 | 0.342 | 0.166 | 0.157 | 0.777 | 0.952 | 0.721 | 0.368 | 0.302 | 0.362 | 0.278 | 0.191 | 0.156 | 0.245 | 0.19 | 0.155
8 | COR-L 105 | 0.374 | 0.386 | 0.39 | 0.316 | 0.33 | 0.348 | 0.364 | 0.36 | 0.537 | 0.395 | 0.401 | 0.37 | 0.44 | 0.637 | 0.66 | 0.61 | 0.591
9 | Calu-6 | – | – | – | – | – | 0.917 | 0.907 | 0.81 | 0.421 | – | – | – | – | 0.495 | 0.433 | 0.391 | 0.268
10 | ChaGo-K-1 | 0.768 | 0.98 | 1.02 | 0.928 | 0.706 | 0.774 | 0.64 | 0.702 | 0.578 | 0.914 | 0.908 | 0.786 | 0.327 | 0.34 | 0.248 | 0.258 | 0.196
11 | EBC-1 | – | – | – | – | – | 0.335 | 0.43 | 0.37 | 0.469 | – | – | – | – | 0.597 | 0.667 | 0.602 | 0.49
12 | EKVX | 0.362 | 0.417 | 0.373 | 0.333 | 0.315 | 0.478 | 0.432 | 0.412 | 0.464 | 0.435 | 0.379 | 0.423 | 0.465 | 0.861 | 0.912 | 0.788 | 0.615
13 | EMC-BAC-2 | 0.518 | 0.538 | 0.508 | 0.44 | 0.378 | 0.628 | 0.567 | 0.485 | 0.319 | 0.513 | 0.546 | 0.41 | 0.327 | 0.387 | 0.342 | 0.316 | 0.235
14 | EPLC-272H | 0.329 | 0.337 | 0.326 | 0.246 | 0.303 | 0.295 | 0.382 | 0.387 | 0.436 | 0.338 | 0.307 | 0.697 | 0.351 | 0.72 | 0.704 | 0.581 | 0.442
15 | H3255 | 0.295 | 0.331 | 0.336 | 0.358 | 0.284 | 0.46 | 0.488 | 0.507 | 0.469 | 0.308 | 0.322 | 0.344 | 0.33 | 0.534 | 0.58 | 0.526 | 0.594
16 | HARA | 0.334 | 0.198 | 0.223 | 0.264 | 0.132 | 0.329 | 0.568 | 0.436 | 0.371 | 0.258 | 0.263 | 0.308 | 0.238 | 0.726 | 0.425 | 0.466 | 0.28
17 | HCC-15 | 0.818 | 0.827 | 0.801 | 0.728 | 0.594 | 0.664 | 0.8 | 0.79 | 0.856 | 0.692 | 0.815 | 0.829 | 0.755 | 0.67 | 0.642 | 0.467 | 0.35
